# Reference: ChEMBL document CHEMBL1157489, “Identification of novel non-peptide CXCR4 antagonists by ligand-based design approach” (Bioorg Med Chem Lett, 2008)
# pEC50, pIC50: −log10 of the molar value.
# Biological target: T1, C-X-C chemokine receptor type 4 (Homo sapiens, UniProt P61073)
# Experiment: Displacement of [125I]SDF1 from human CXCR4 expressed in CHO cells at 10 uM
# Type: cell-based
# Conditions: not given
# T1 sequence (P61073 whole entry): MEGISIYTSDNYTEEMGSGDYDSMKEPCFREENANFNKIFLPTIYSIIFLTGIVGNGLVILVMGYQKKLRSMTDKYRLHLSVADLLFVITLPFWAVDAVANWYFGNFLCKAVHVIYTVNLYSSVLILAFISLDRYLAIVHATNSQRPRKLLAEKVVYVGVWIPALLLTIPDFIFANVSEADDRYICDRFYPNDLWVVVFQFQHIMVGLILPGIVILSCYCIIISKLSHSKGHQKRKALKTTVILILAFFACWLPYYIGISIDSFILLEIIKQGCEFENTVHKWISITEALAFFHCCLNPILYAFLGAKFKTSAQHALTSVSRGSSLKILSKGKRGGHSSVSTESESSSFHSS
row,SMILES,Activity
1,N=C(N)NCCCn1c(C(=O)NCCc2c[nH]c3ccccc23)cc2cc(NC(=O)C3CCN(C(=N)N)CC3)ccc21,86%
2,N=C(N)NCCCn1c(C(=O)Nc2cccc3ccccc23)cc2cc(NC(=O)Cc3ccc(O)cc3)ccc21,62%
3,N=C(N)NCCCn1c(C(=O)NCCc2c[nH]c3ccccc23)cc2cc(NC(=O)C(Cc3ccccc3)NC(=N)N)ccc21 (racemic),72%
4,N=C(N)NCCCn1c(C(=O)NCCc2c[nH]c3ccccc23)cc2cc(NC(=O)CCNC(=N)N)ccc21,70%
5,N=C(N)NCCc1cc2cc(NC(=O)CCc3ccc(O)cc3)ccc2n1CCc1ccc2ccccc2c1,53%
6,N=C(N)NCCCn1c(C(=O)NCCc2cccc3ccccc23)cc2cc(NC(=O)CNC(=N)N)ccc21,61%
7,N=C(N)NCCCn1c(C(=O)Nc2cccc3ccccc23)cc2cc(NC(=O)CCc3ccc(O)cc3)ccc21,55%
8,N=C(N)NCCCn1c(C(=O)NCCc2c[nH]c3ccccc23)cc2cc(NC(=O)CNC(=N)N)ccc21,88%
9,N=C(N)NCCCn1c(C(=O)NCCc2ccc(O)cc2)cc2cc(NC(=O)CNC(=N)N)ccc21,23%
10,N=C(N)NCCCn1c(C(=O)NCCc2ccc3ccccc3c2)cc2cc(NC(=O)CNC(=N)N)ccc21,63%
11,CC(C)CC(NC(=N)N)C(=O)Nc1ccc2c(c1)cc(C(=O)NCCc1c[nH]c3ccccc13)n2CCCNC(=N)N (racemic),77%

# System: Human immunodeficiency virus 1
# Experiment: Antiviral activity against HIV1 3B assessed as inhibition of virus-induced cytopathogenicity
# Type: functional, organism-based
# Conditions: Human immunodeficiency virus 1, 3B
row,SMILES,pEC50
1,CC(C)C[C@H](NC(=N)N)C(=O)Nc1ccc2c(c1)cc(C(=O)NCCc1c[nH]c3ccccc13)n2CCCNC(=N)N,5.27

# Biological target: T1, C-X-C chemokine receptor type 4
# Experiment: Displacement of [125I]SDF1 from human CXCR4 expressed in CHO cells
# Type: cell-based
# Conditions: not given
row,SMILES,pIC50
1,NC(N)=NCCc1cc2cc(NC(=O)CCc3ccc(O)cc3)ccc2n1CCc1ccc2ccccc2c1,5.57
2,N=C(N)NCCCn1c(C(=O)NCCc2c[nH]c3ccccc23)cc2cc(NC(=O)C3CCN(C(=N)N)CC3)ccc21,5.52
3,CC(C)C[C@@H](NC(=N)N)C(=O)Nc1ccc2c(c1)cc(C(=O)NCCc1c[nH]c3ccccc13)n2CCCNC(=N)N,5.66
4,NC(N)=NCCCn1c(C(=O)NCCc2c[nH]c3ccccc23)cc2cc(NC(=O)CN=C(N)N)ccc21,5.52
5,NC(N)=NCCCn1c(C(=O)Nc2cccc3ccccc23)cc2cc(NC(=O)Cc3ccc(O)cc3)ccc21,5.32
6,N=C(N)NCCCn1c(C(=O)NCCc2c[nH]c3ccccc23)cc2cc(NC(=O)[C@@H](Cc3ccccc3)NC(=N)N)ccc21,5.43
7,N=C(N)NCCCn1c(C(=O)NCCc2c[nH]c3ccccc23)cc2cc(NC(=O)[C@H](Cc3ccccc3)NC(=N)N)ccc21,5.77
8,CC(C)C[C@H](NC(=N)N)C(=O)Nc1ccc2c(c1)cc(C(=O)NCCc1c[nH]c3ccccc13)n2CCCNC(=N)N,5.92
